Experimental data taken from patent US20230365592A1 (Agios Pharmaceuticals, Inc., priority 2022, published 2023).

Molecular target: T1, human PAH with the R408W mutation (Homo sapiens, UniProt P00439, R408W)
T1 construct: expressed in transfected cells
T1 sequence (P00439 1-452 R408W): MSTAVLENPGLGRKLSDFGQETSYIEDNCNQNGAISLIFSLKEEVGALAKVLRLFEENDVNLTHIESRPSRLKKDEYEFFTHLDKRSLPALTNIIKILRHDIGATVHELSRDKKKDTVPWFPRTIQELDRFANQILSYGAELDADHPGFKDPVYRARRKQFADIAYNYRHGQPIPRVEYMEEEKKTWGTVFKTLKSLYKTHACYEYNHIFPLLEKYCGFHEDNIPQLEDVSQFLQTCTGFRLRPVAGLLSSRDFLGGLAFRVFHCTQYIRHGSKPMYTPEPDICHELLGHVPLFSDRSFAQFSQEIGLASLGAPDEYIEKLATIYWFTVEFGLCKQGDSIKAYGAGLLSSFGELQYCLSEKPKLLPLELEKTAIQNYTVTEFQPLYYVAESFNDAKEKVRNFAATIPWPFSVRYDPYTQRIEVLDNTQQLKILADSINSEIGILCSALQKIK
Assay: Cell Based Phenylalanine Flux Assay;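 note: after compound treatment, cells received sepiapterin plus isotope-labelled Phenylalanine for 4 hours, then labelled Tyrosine in the medium was quantified, 10-point 2-fold dilution series run in duplicate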
Conditions: A375 cells expressing R408W PAH; 24 hrs with compound, then 20 µM sepiapterin and 800 µM 13C9,15N-Phenylalanine for 4 hours; 13C-Tyrosine by LC-MS; average where tested multiple times; read-out: AC50
Method: Compounds were resuspended in DMSO, and 2-fold serial dilutions were performed to generate a 10-point dose curve. Compounds were added to plated cells in a total volume of 100 µl, and a final DMSO concentration of 0.5%. Each compound was tested in duplicate. Following compound addition, cells were placed in a 5% CO2, 37° C. tissue culture incubator for 24 hrs. After the incubation period, 20 µM sepiapterin and 800 µM 13C9,15N-Phenylalanine were added. After 4 hours, cell media was removed. An aliquot of 10 µl of cell media was combined with 200 µl of extraction buffer (80% acetonitrile/20% H2O) for each well. Determination of ^13C-Tyrosine concentration was assessed by liquid chromatography mass spectrometry.
Where a compound was tested multiple times, the average value of the tests is reported.

| AC50 | Structure (SMILES) |
| --- | --- |
| 1 to 5 µM | COCc1ccc2c(C(=O)N3CCc4[nH]cnc4C3c3cc4cccc(C)n4n3)cnn2c1 (stereo not drawn) |
| 1 to 5 µM | COc1cccn2nc(C3c4nc[nH]c4CCN3C(=O)c3cc(C(C)(C)C)nn3C)cc12 (stereo not drawn) |
| 1 to 5 µM | Cc1cccc2cc(C3c4nc[nH]c4CCN3c3ncc(N)cn3)nn12 (stereo not drawn) |
| 1 to 5 µM | Cc1ncoc1C(=O)N1CC2(CC2)c2[nH]cnc2C1c1cc2ccccn2n1 (stereo not drawn) |
| 1 to 5 µM | Cn1cc(-c2nnc(C(=O)N3CCc4[nH]cnc4C3c3cc4cc(C(F)(F)F)ccn4n3)o2)cn1 (stereo not drawn) |
| > 5 µM | CC(C)(F)c1nnc(N2CCc3[nH]cnc3C2c2cc3c(C(F)(F)F)cccn3n2)o1 (stereo not drawn) |
| > 5 µM | O=C(c1nnc(CCN2CC(F)C2)o1)N1CCc2[nH]cnc2C1c1cc2ccccn2n1 (stereo not drawn) [2-[2-(3-fluoroazetidin-1-yl)ethyl]-5-(4-{pyrazolo[1,5-a]pyridin-2-yl}-1H,4H,5H,6H,7H-imidazo[4,5-c]pyridine-5-carbonyl)-1,3,4-oxadiazole] |

| Structure (SMILES) | AC50 |
| --- | --- |
| Cc1nc([C@H](C)O)oc1C(=O)N1CCc2[nH]cnc2[C@H]1c1cc2cccc(C)n2n1 (single isomer, unassigned) | 1 to 5 µM |

Same assay, conditions: A375 cells expressing human PAH R408W; 24 hrs compound incubation; 13C-Tyrosine by LC-MS; average where tested multiple times; read-out: AC50

| Structure (SMILES) | AC50 |
| --- | --- |
| FC(F)Oc1cccn2nc([C@@H]3c4nc[nH]c4CCN3c3nnc(C(F)F)o3)cc12 [Example 2153, (S)-2-(4-(4-(difluoromethoxy)pyrazolo[1,5-a]pyridin-2-yl)-1,4,6,7-tetrahydro-5H-imidazo[4,5-c]pyridin-5-yl)-5-(difluoromethyl)-1,3,4-oxadiazole] | < 0.5 µM |
| Cc1cc(-c2nnc(C(=O)N3CCc4[nH]cnc4[C@@H]3c3cc4c(C5CC5)cccn4n3)o2)nn1C [Example 1932, (R)-(4-(4-cyclopropylpyrazolo[1,5-a]pyridin-2-yl)-1,4,6,7-tetrahydro-5H-imidazo[4,5-c]pyridin-5-yl)(5-(1,5-dimethyl-1H-pyrazol-3-yl)-1,3,4-oxadiazol-2-yl)methanone] | > 5 µM |
| O=C(c1nnc(-c2ccc(F)cn2)o1)N1CCc2[nH]cnc2[C@@H]1c1cc2ccccn2n1 [Example 2364, (R)-(5-(5-fluoropyridin-2-yl)-1,3,4-oxadiazol-2-yl)(4-(pyrazolo[1,5-a]pyridin-2-yl)-6,7-dihydro-1H-imidazo[4,5-c]pyridin-5(4H)-yl)methanone] | > 5 µM |
| O=C(c1ocnc1C1CC1)N1CCc2[nH]cnc2[C@@H]1c1cc2cccc(C(F)F)n2n1 [Example 2113, (R)-(4-cyclopropyloxazol-5-yl)(4-(7-(difluoromethyl)pyrazolo[1,5-a]pyridin-2-yl)-1,4,6,7-tetrahydro-5H-imidazo[4,5-c]pyridin-5-yl)methanone] | > 5 µM |
| Cc1ccc2cc([C@@H]3c4nc[nH]c4CCN3C(=O)c3nnc(-c4cnn(C)c4)o3)nn2c1 [Example 2380, (S)-(5-(1-methyl-1H-pyrazol-4-yl)-1,3,4-oxadiazol-2-yl)(4-(6-methylpyrazolo[1,5-a]pyridin-2-yl)-6,7-dihydro-1H-imidazo[4,5-c]pyridin-5(4H)-yl)methanone] | 1 to 5 µM |
| FC(F)Oc1cccn2nc([C@H]3c4nc[nH]c4CCN3c3ccc(C(F)(F)F)cn3)cc12 [Example 2273, (R)-4-(4-(difluoromethoxy)pyrazolo[1,5-a]pyridin-2-yl)-5-(5-(trifluoromethyl)pyridin-2-yl)-4,5,6,7-tetrahydro-1H-imidazo[4,5-c]pyridine] | > 5 µM |
| O=C(c1nnc(-c2ccccn2)s1)N1CCc2[nH]cnc2[C@@H]1c1cc2ccccn2n1 [Example 1967, (R)-(4-(pyrazolo[1,5-a]pyridin-2-yl)-1,4,6,7-tetrahydro-5H-imidazo[4,5-c]pyridin-5-yl)(5-(pyridin-2-yl)-1,3,4-thiadiazol-2-yl)methanone] | > 5 µM |

Continued, values first:

| AC50 | Structure (SMILES) |
| --- | --- |
| 1 to 5 µM | Nc1cc(C(=O)N2CCc3[nH]cnc3[C@H]2c2cc3ccccn3n2)n(C(F)F)n1 [Example 2370, (S)-(3-amino-1-(difluoromethyl)-1H-pyrazol-5-yl)(4-(pyrazolo[1,5-a]pyridin-2-yl)-6,7-dihydro-1H-imidazo[4,5-c]pyridin-5(4H)-yl)methanone] |
| 1 to 5 µM | O=C(c1cnc(C2CC2)o1)N1CCc2[nH]cnc2[C@H]1c1cc2ccccn2n1 [Example 2496, (S)-(2-cyclopropyloxazol-5-yl)(4-(pyrazolo[1,5-a]pyridin-2-yl)-1,4,6,7-tetrahydro-5H-imidazo[4,5-c]pyridin-5-yl)methanone] |

Same assay, conditions: A375 cells expressing human R408W PAH; 24 hrs compound incubation; 13C-Tyrosine by LC-MS; average where tested multiple times; read-out: AC50

| Structure (SMILES) | AC50 |
| --- | --- |
| O=C(Cc1nc(C(F)(F)F)cs1)N1CCc2[nH]cnc2[C@H]1c1cc2ccccn2n1 [Example 608, (S)-1-(4-(pyrazolo[1,5-a]pyridin-2-yl)-6,7-dihydro-1H-imidazo[4,5-c]pyridin-5(4H)-yl)-2-(4-(trifluoromethyl)thiazol-2-yl)ethanone] | 1 to 5 µM |
| Cc1ncccc1-c1nnc(C(=O)N2CCc3[nH]cnc3[C@H]2c2cc3cccc(C(F)(F)F)n3n2)o1 [Example 1342, (S)-(5-(2-methylpyridin-3-yl)-1,3,4-oxadiazol-2-yl)(4-(7-(trifluoromethyl)pyrazolo[1,5-a]pyridin-2-yl)-6,7-dihydro-1H-imidazo[4,5-c]pyridin-5(4H)-yl)methanone] | 0.5 to 1 µM |
| Cc1cc(-c2nnc(C(=O)N3CCc4[nH]cnc4[C@H]3c3cc4cccc(C(F)F)n4n3)o2)nn1C [Example 1537, (S)-(4-(7-(difluoromethyl)pyrazolo[1,5-a]pyridin-2-yl)-6,7-dihydro-1H-imidazo[4,5-c]pyridin-5(4H)-yl)(5-(1,5-dimethyl-1H-pyrazol-3-yl)-1,3,4-oxadiazol-2-yl)methanone] | 0.5 to 1 µM |
| Cc1cccc2cc([C@H]3c4nc[nH]c4CCN3C(=O)c3nnc(-c4ncccn4)o3)nn12 [Example 1336, (R)-(4-(7-methylpyrazolo[1,5-a]pyridin-2-yl)-6,7-dihydro-1H-imidazo[4,5-c]pyridin-5(4H)-yl)(5-(pyrimidin-2-yl)-1,3,4-oxadiazol-2-yl)methanone] | 1 to 5 µM |
| CC(C)c1nnc(C(=O)N2CCc3[nH]cnc3[C@H]2c2cc3cccc(F)n3n2)o1 [Example 1555, (S)-(4-(7-fluoropyrazolo[1,5-a]pyridin-2-yl)-6,7-dihydro-1H-imidazo[4,5-c]pyridin-5(4H)-yl)(5-isopropyl-1,3,4-oxadiazol-2-yl)methanone] | 1 to 5 µM |

Continued, values first:

| AC50 | Structure (SMILES) |
| --- | --- |
| < 0.5 µM | Cn1nccc1-c1nnc(C(=O)N2CCc3[nH]cnc3[C@H]2c2cc3c(C(F)F)cccn3n2)o1 [Example 1532, (S)-(4-(4-(difluoromethyl)pyrazolo[1,5-a]pyridin-2-yl)-6,7-dihydro-1H-imidazo[4,5-c]pyridin-5(4H)-yl)(5-(1-methyl-1H-pyrazol-5-yl)-1,3,4-oxadiazol-2-yl)methanone] |
| < 0.5 µM | O=C(c1nnc(-c2ccc(C(F)(F)F)cn2)o1)N1CCc2[nH]cnc2[C@H]1c1cc2c(F)cccn2n1 [Example 879, (S)-(4-(4-fluoropyrazolo[1,5-a]pyridin-2-yl)-6,7-dihydro-1H-imidazo[4,5-c]pyridin-5(4H)-yl)(5-(5-(trifluoromethyl)pyridin-2-yl)-1,3,4-oxadiazol-2-yl)methanone] |
| < 0.5 µM | Cn1nc(Cl)cc1C(=O)N1CCc2[nH]cnc2[C@H]1c1cc2ccccn2n1 [Example 680, (S)-(3-chloro-1-methyl-1H-pyrazol-5-yl)(4-(pyrazolo[1,5-a]pyridin-2-yl)-6,7-dihydro-1H-imidazo[4,5-c]pyridin-5(4H)-yl)methanone] |
| > 5 µM | Cc1cc(-c2nnc(C(=O)N3CCc4[nH]cnc4[C@@H]3c3cc4c(F)cccn4n3)o2)nn1C [Example 882, (R)-(5-(1,5-dimethyl-1H-pyrazol-3-yl)-1,3,4-oxadiazol-2-yl)(4-(4-fluoropyrazolo[1,5-a]pyridin-2-yl)-6,7-dihydro-1H-imidazo[4,5-c]pyridin-5(4H)-yl)methanone] |
| < 0.5 µM | Cc1nc(C(=O)N2CCc3[nH]cnc3[C@H]2c2cc3c(C(F)(F)F)cccn3n2)n(C)n1 [Example 1082, (S)-(1,3-dimethyl-1H-1,2,4-triazol-5-yl)(4-(4-(trifluoromethyl)pyrazolo[1,5-a]pyridin-2-yl)-6,7-dihydro-1H-imidazo[4,5-c]pyridin-5(4H)-yl)methanone] |
| > 5 µM | O=C(c1ccnn1C(F)F)N1CCc2[nH]cnc2[C@@H]1c1cc2c(F)cccn2n1 [Example 777, (R)-(1-(difluoromethyl)-1H-pyrazol-5-yl)(4-(4-fluoropyrazolo[1,5-a]pyridin-2-yl)-6,7-dihydro-1H-imidazo[4,5-c]pyridin-5(4H)-yl)methanone] |
| > 5 µM | COc1cccn2nc([C@H]3c4nc[nH]c4CCN3C(=O)c3nnc(-c4ccn(C(F)(F)F)n4)o3)cc12 [Example 1653, (R)-(4-(4-methoxypyrazolo[1,5-a]pyridin-2-yl)-6,7-dihydro-1H-imidazo[4,5-c]pyridin-5(4H)-yl)(5-(1-(trifluoromethyl)-1H-pyrazol-3-yl)-1,3,4-oxadiazol-2-yl)methanone] |
| < 0.5 µM | Cc1cccn2nc([C@@H]3c4nc[nH]c4CCN3C(=O)c3nnc(-c4ccn(C)n4)o3)cc12 [Example 743, (S)-(5-(1-methyl-1H-pyrazol-3-yl)-1,3,4-oxadiazol-2-yl)(4-(4-methylpyrazolo[1,5-a]pyridin-2-yl)-6,7-dihydro-1H-imidazo[4,5-c]pyridin-5(4H)-yl)methanone] |
